We go through one compound from PMC10202359, “Nicotinamide N-methyltransferase (NNMT) regulates the glucocorticoid signaling pathway during the early phase of adipogenesis” (Scientific Reports, 2023).

As usually defined, the IC50 is the concentration at which inhibition is half-maximal.

Read-outs that look alike come from different tables or passages of the source.

One data set deals with METTL21A (Homo sapiens, UniProt Q8WXB1). Nature of the data set: Methyltransferase Hot Spot radioisotope assay, METTL21A. The format is biochemical. The settings on record: 10-dose, threefold dilution; CC-410 from 300 μM, control from 100 μM; substrate HSPA8-[CTD]. The protocol: (§1) CC-410 was screened in biochemical assays for activity against a panel of 11 methyltransferases (MT) by using the radioisotope (3H-AdoMet) based MT Hot Spot Assay. All the assays were performed by Reaction Biology Corporation (RBC, Malven, PA, USA). Briefly CC-410 was incubated with the selected MTs, corresponding substrates, and radiolabeled SAM (S-Adenosyl-L-[methyl-3 H]methionine). […] Reaction mixtures were incubated and spotted onto filter papers, which were then washed to remove unreacted SAM, leaving the bound radiolabeled product. Detection of the radiolabeled, methylated product was performed via a nanoliter-scale radioisotope filter binding platform. […] For each assay, control compounds were included as positive controls for enzyme function and assay reproducibility. […] IC50 was calculated by non-linear least square fitting dose–response curve.

The test system of the next data set is 3T3-L1 cells. Briefly: CellTiter-Blue cell viability assay, 3T3-L1. In kind it is cell-based, mouse. The settings on record: highest concentration (1–25 uM tested), assessed at terminal differentiation. The protocol: CellTiter-Blue® Cell Viability Assay (Promega) was used following the manufacturer’s instructions. 3T3-L1 cells were seeded at a density of 2 × 10^3 cells per well in 96-well plates and cultured till confluence in standard medium. Two-day post-confluent 3T3-L1 cells were induced with DIM and treated with 1, 5, 10 and 25 µM CC-410 along with an untreated control (0.5% DMSO) in 4 different conditions: every 48 h throughout the differentiation period; once in the first 20 h following DIM stimulation; once 48 h after DIM stimulation; or after the early differentiation phase. In all cases, cell viability was assessed at terminal differentiation. Cell viability percentages were calculated by normalizing the fluorescence recorder (560/590) for the treated samples over untreated controls.

The next data set addresses DNMT1 (Homo sapiens, UniProt P26358). Briefly: Methyltransferase Hot Spot radioisotope assay, DNMT1. The format is biochemical. As to conditions: 10-dose, threefold dilution; CC-410 from 300 μM, control from 100 μM; substrate Poly dI-dC. How it is done:
(§2) CC-410 was screened in biochemical assays for activity against a panel of 11 methyltransferases (MT) by using the radioisotope (3H-AdoMet) based MT Hot Spot Assay. All the assays were performed by Reaction Biology Corporation (RBC, Malven, PA, USA). Briefly CC-410 was incubated with the selected MTs, corresponding substrates, and radiolabeled SAM (S-Adenosyl-L-[methyl-3 H]methionine). The specific MTs assessed, and the corresponding substrates are as follows: DNMT1- Poly dl-dC, DNMT3a- Lambda DNA, DNMT3b- Lambda DNA, DOT1L- Nucleosomes, EZH2 Complex- Core Histone, METTL21A- HSPA8-[CTD], NRMT1- RCC1, PRMT3- Histone H4, PRMT5/MEP50- Histone H2A, SET1b -Core Histone Complex and SMYD2- Nucleosomes. Reaction mixtures were incubated and spotted onto filter papers, which were then washed to remove unreacted SAM, leaving the bound radiolabeled product. Detection of the radiolabeled, methylated product was performed via a nanoliter-scale radioisotope filter binding platform. […] For each assay, control compounds were included as positive controls for enzyme function and assay reproducibility. […] IC50 was calculated by non-linear least square fitting dose–response curve.

The target of a further data set is T1, DNMT3b (Homo sapiens, UniProt Q9UBC3).
T1 construct: purchased Reaction Biology Corporation
Nature of the data set: Methyltransferase Hot Spot radioisotope assay, DNMT3b. The format is biochemical. The settings on record: 10-dose, threefold dilution; CC-410 from 300 μM, control from 100 μM; substrate Lambda DNA. How it is done:
as §2

For another data set, the target named is T2, SET1b Complex (Homo sapiens, UniProt Q9UPS6).
T2 construct: purchased Reaction Biology Corporation
Briefly: Methyltransferase Hot Spot radioisotope assay, SET1b Complex. In kind it is biochemical. How it is done:
as §2

In the next data set the target is T3, DNMT3a (Homo sapiens, UniProt Q9Y6K1).
T3 construct: purchased Reaction Biology Corporation
Nature of the data set: Methyltransferase Hot Spot radioisotope assay, DNMT3a. The format is biochemical. The settings on record: 10-dose, threefold dilution; CC-410 from 300 μM, control from 100 μM; substrate Lambda DNA. The protocol:
as §2

Another data set deals with T4, DOT1L (Homo sapiens, UniProt Q8TEK3).
T4 construct: purchased Reaction Biology Corporation
Briefly: Methyltransferase Hot Spot radioisotope assay, DOT1L. In kind it is biochemical. As to conditions: 10-dose, threefold dilution; CC-410 from 300 μM, control from 100 μM; substrate Nucleosomes. The protocol:
as §2

In a further data set the target is PRMT3 (Homo sapiens, UniProt O60678). Nature of the data set: Methyltransferase Hot Spot radioisotope assay, PRMT3. The format is biochemical. The settings on record: text and Fig. 4D curve fit; read-out: IC50 for PRMT3. The protocol:
as §1

For a further data set, the target named is T5, EZH2 Complex (Homo sapiens, UniProt Q15910).
T5 construct: purchased Reaction Biology Corporation
Briefly: Methyltransferase Hot Spot radioisotope assay, EZH2 Complex. The format is biochemical. The settings on record: 10-dose, threefold dilution; CC-410 from 300 μM, control from 100 μM; substrate Core Histone. How it is done: as §2

In a further data set the target is T6, PRMT5/MEP50 (Homo sapiens, UniProt O14744).
T6 construct: purchased Reaction Biology Corporation
Briefly: Methyltransferase Hot Spot radioisotope assay, PRMT5/MEP50. In kind it is biochemical. The settings on record: 10-dose, threefold dilution; CC-410 from 300 μM, control from 100 μM; substrate Histone H2A. The protocol:
as §2

The target in another data set is T7, NRMT1 (Homo sapiens, UniProt Q9BV86).
T7 sequence (Q9BV86 1-223): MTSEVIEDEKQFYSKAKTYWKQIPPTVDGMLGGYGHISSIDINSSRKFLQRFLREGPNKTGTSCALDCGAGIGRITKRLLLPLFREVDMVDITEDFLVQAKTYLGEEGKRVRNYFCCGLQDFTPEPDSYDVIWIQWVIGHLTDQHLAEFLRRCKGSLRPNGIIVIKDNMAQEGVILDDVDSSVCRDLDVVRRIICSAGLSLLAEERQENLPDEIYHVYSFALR
Briefly: Methyltransferase Hot Spot radioisotope assay, NRMT1. In kind it is biochemical. The settings on record: 10-dose, threefold dilution; CC-410 from 300 μM, control from 100 μM; substrate RCC1. The protocol: as §2

A further data set deals with T8, human NNMT (Homo sapiens, UniProt P40261).
T8 sequence (P40261 1-264): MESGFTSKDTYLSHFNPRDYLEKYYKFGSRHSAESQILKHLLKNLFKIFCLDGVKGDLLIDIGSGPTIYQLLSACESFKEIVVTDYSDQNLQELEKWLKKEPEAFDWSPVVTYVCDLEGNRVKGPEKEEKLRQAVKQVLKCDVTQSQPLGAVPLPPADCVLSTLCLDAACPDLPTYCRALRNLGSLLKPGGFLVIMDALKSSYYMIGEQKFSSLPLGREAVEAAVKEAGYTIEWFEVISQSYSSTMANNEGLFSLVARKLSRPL
Nature of the data set: hNNMT enzymatic modulation, RapidFire SPE LC/MS assay (Lilly). The format is biochemical.

The target of the next data set is T9, SMYD2 (Homo sapiens, UniProt Q9NRG4).
T9 construct: purchased Reaction Biology Corporation
Nature of the data set: Methyltransferase Hot Spot radioisotope assay, SMYD2. In kind it is biochemical. How it is done: as §2

Sequence of METTL21A (Q8WXB1 whole entry, species assumed): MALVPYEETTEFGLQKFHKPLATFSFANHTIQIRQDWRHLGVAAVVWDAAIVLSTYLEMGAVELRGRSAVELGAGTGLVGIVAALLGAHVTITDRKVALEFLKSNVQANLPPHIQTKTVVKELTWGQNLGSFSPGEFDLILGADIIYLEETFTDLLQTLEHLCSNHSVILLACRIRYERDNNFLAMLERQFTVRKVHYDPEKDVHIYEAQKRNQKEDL
T5 sequence (Q15910 whole entry): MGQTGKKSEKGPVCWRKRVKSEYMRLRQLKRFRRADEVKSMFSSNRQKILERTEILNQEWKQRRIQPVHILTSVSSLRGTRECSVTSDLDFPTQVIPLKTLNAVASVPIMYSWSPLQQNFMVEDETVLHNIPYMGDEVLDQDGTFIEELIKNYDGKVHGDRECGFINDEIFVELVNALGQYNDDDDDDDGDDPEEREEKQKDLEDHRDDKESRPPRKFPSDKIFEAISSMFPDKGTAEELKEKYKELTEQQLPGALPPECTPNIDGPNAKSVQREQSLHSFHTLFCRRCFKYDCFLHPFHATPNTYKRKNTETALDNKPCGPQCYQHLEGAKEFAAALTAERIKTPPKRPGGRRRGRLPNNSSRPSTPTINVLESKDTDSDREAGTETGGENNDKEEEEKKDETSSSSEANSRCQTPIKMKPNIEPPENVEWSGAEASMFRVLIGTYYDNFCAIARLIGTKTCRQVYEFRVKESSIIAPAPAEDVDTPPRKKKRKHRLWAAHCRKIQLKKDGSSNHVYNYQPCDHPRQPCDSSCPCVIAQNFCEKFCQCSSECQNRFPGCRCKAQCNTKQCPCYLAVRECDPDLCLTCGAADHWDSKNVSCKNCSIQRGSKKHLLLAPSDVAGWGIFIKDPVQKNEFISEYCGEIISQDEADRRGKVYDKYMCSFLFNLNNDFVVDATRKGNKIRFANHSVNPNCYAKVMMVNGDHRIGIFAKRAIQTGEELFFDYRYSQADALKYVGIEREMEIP
T5 sequence (O75530 whole entry partner): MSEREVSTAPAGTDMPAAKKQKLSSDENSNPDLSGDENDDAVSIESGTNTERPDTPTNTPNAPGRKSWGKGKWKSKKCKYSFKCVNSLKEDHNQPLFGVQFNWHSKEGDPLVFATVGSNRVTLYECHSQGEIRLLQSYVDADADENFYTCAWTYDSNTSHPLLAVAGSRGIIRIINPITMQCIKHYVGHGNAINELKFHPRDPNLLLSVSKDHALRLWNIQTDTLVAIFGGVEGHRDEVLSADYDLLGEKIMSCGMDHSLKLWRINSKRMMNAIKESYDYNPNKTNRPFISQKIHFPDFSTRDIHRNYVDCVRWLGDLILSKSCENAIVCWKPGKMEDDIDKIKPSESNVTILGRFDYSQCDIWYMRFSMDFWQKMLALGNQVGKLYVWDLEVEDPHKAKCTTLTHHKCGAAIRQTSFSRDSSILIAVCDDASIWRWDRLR
T5 sequence (Q15022 whole entry partner): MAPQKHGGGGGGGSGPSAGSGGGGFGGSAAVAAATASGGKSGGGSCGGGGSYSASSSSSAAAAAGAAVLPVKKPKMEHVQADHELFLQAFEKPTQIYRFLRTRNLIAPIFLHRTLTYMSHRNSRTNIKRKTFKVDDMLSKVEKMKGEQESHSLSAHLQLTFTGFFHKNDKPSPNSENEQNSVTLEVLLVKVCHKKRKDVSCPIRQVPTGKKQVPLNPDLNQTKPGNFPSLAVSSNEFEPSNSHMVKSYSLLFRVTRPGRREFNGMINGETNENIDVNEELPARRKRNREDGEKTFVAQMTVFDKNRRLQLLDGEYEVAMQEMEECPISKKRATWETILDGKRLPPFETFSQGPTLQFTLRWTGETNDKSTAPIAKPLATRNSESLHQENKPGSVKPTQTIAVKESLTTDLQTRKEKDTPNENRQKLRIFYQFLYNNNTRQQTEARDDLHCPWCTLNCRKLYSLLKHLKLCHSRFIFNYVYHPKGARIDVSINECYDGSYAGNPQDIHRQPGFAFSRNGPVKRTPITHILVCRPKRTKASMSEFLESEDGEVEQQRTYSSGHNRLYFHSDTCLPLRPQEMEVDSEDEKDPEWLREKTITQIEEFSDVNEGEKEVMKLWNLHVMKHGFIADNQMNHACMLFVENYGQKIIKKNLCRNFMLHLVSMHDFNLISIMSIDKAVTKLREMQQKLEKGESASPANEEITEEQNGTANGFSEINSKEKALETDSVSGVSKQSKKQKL
T5 sequence (Q09028 whole entry partner): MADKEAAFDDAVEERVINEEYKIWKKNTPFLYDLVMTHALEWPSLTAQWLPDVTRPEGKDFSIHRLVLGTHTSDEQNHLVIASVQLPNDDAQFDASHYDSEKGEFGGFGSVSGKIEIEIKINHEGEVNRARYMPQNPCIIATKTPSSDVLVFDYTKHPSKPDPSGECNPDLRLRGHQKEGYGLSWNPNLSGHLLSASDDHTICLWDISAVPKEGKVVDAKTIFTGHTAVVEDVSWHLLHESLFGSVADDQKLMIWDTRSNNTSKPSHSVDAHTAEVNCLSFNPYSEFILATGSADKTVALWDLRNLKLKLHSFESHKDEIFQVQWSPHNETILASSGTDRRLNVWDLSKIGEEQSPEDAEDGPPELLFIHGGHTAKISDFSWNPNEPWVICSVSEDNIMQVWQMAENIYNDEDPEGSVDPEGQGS
T5 sequence (Q6ZN18 whole entry partner): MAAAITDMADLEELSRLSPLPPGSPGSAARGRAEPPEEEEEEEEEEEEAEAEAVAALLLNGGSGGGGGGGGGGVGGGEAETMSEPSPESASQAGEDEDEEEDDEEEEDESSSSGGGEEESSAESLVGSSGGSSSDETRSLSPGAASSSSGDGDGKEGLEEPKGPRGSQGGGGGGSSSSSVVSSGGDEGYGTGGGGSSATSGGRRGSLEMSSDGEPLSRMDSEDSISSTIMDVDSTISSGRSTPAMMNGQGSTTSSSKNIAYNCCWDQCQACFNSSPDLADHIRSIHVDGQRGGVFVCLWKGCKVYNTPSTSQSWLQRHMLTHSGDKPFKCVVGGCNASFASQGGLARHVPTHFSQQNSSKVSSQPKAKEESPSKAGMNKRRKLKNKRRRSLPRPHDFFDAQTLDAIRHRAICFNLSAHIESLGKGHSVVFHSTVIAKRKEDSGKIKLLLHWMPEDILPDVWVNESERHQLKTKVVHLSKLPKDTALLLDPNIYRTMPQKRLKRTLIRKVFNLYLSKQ
T6 sequence (O14744 whole entry, species assumed): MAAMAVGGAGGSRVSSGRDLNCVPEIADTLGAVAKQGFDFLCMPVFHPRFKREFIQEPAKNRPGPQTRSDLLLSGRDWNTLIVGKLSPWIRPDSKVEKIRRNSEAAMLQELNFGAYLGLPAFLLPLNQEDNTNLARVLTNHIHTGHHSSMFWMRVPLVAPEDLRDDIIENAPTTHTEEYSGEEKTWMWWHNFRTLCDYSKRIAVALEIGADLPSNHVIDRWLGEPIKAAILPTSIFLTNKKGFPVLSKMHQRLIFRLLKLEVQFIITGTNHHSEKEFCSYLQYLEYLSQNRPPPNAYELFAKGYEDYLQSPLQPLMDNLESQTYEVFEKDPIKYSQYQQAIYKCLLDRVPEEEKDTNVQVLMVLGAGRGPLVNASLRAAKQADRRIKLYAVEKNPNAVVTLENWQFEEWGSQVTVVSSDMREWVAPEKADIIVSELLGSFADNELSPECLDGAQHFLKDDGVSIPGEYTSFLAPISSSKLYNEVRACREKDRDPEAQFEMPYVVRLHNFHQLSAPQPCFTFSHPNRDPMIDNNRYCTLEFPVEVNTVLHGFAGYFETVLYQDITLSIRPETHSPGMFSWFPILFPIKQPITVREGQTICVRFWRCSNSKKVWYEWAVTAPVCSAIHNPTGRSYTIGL
T6 sequence (Q9BQA1 whole entry partner, species assumed): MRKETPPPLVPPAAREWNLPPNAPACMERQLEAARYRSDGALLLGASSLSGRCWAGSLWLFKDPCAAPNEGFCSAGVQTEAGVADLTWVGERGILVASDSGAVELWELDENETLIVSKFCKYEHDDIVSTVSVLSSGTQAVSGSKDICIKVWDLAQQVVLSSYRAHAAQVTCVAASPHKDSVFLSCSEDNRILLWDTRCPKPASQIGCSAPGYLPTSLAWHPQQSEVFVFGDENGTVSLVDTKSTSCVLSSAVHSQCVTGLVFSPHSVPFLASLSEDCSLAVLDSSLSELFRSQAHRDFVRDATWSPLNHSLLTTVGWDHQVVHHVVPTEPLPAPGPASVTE
T3 sequence (Q9Y6K1 whole entry, looked up, species assumed): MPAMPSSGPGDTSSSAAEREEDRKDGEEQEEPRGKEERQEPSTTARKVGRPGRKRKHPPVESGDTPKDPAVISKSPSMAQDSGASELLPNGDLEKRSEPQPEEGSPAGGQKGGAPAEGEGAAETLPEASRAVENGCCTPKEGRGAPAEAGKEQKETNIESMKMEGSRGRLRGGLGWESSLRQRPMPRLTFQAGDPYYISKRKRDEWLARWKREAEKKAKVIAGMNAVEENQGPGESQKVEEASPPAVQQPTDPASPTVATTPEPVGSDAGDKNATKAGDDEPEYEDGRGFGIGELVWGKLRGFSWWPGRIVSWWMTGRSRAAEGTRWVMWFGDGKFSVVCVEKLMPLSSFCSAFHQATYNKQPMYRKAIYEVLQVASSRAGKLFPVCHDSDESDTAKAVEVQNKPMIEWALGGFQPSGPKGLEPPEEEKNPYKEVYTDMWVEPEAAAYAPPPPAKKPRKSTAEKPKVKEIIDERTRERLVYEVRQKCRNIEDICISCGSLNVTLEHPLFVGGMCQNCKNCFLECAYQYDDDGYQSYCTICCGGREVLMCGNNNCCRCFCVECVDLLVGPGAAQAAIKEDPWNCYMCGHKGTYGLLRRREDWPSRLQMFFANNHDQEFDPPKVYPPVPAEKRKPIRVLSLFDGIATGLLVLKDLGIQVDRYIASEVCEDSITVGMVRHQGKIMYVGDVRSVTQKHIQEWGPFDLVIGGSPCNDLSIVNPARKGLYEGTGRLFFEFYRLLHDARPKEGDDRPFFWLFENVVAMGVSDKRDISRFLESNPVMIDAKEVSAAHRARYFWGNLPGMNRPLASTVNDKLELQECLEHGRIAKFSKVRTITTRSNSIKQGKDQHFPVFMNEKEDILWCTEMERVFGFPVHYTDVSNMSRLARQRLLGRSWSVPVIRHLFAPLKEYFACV

Regarding `COC(=O)CCC(C)C1CCC2C3C(N)CC4CC(OC(C)=O)CCC4(C)[C@H]3CC(N)C12C` (stereo in doubt) [CC-410, Methyl-(4S)-4-((3S,5S,7S,8S,10R,12R,13S,14R,17S)-3-acetoxy-7,12-diamino-10,13-dimethylhexadecahydro-1H-cyclopenta[a]phenanthren-17-yl) pentanoate], the “IC50* (M) METTL21A” value on METTL21A was “no inhibition or compound activity that could not be fitted to an IC50 curve”. In addition, in the data set with 3T3-L1 cells, the cell viability result is reported as “only a slight reduction in cell viability”. Moreover, the “IC50* (M) DNMT1” value at DNMT1 is listed as “no inhibition or compound activity that could not be fitted to an IC50 curve”. Further, at DNMT3b, the “IC50* (M) DNMT3b” value is recorded as “no inhibition or compound activity that could not be fitted to an IC50 curve”. Moreover, the IC50 came out at 0.000121 M on SET1b Complex (10-dose, threefold dilution, CC-410 from 300 μM, control from 100 μM, substrate Core Histone, read-out: IC50* (M) SET1b Complex); 0.00012 M at SET1b Complex (text and Fig. 4D curve fit, read-out: IC50 for SET1b Complex); 104 µM on PRMT3; 1.64 µM on human NNMT (MNAM product readout, LC/MS, Fig. 4B, read-out: hNNMT MNAN Rel IC50); 1.6 µM at human NNMT (automated solid-phase extraction and LC-MS, read-out: IC50 against human NNMT); 1.7 µM at human NNMT (hNNMT SAH Rel IC50, SAH product readout, LC/MS, Fig. 4B). For the same compound, on SMYD2, the IC50 amounted to 34.3 µM. The “IC50* (M) DNMT3a” value against DNMT3a was “no inhibition or compound activity that could not be fitted to an IC50 curve”. Also, the “IC50* (M) DOT1L” value against DOT1L is reported as “no inhibition or compound activity that could not be fitted to an IC50 curve”. The “IC50* (M) EZH2 Complex” value against EZH2 Complex was “no inhibition or compound activity that could not be fitted to an IC50 curve”. On PRMT5/MEP50, the “IC50* (M) PRMT5/MEP50” value is “no inhibition or compound activity that could not be fitted to an IC50 curve”. Further, the “IC50* (M) NRMT1” value on NRMT1 was “no inhibition or compound activity that could not be fitted to an IC50 curve”.
